Columns and labels:
ileal mucosa = assay type: cell-based, mouse
Text: Normally fed, 8-week-old, male NIH Swiss mice are sacrificed by CO2 inhalation, followed by cervical dislocation. The small intestine is gently removed, and the segment is washed and flushed in ice-cold Ringer's solution. Then the mucosa is separated from the serosa and the muscular layers by stripping through the submucosal plane as previously described (Zhang et al. (2007) J Physiol 581(3):1221-1233). Following exsanguinations, ileal mucosa is obtained from a 10 cm segment close to the caecum. All experiments are approved by the University of Florida Institutional Animal Care and Use Committee.
Ion transport studies are performed on ileal sheets. Tissues are then mounted in between the two halves of an Ussing type-Lucite chamber with 0.3 cm^2 exposed surface areas (P2304, Physiologic Instruments, San Diego, Calif., USA). Regular Ringer's solution (115 mM NaCl, 25 mM NaHCO3, 4.8 mM K2HPO4, 2.4 mM KH2PO4, 1.2 mM MgCl2 and 1.2 mM CaCl2) bubbled with 95% O2: 5% CO2 is used bilaterally as bathing solution for the tissues and the temperature is maintained constant at 37° C. The chambers are balanced to eliminate osmotic and hydrostatic forces. Resistance due to fluid is also compensated. The tissues are allowed to stabilize. The basal short-circuit current (Isc) and the corresponding conductance (G) are recorded using a computer controlled voltage/current clamp device (VCC MC-8, Physiologic Instruments).
The tissues are incubated with H-89 for 30 minutes. Increasing concentrations of glucose (0.015-8 mM) are added every 5 minutes and the peak current is noted. Saturation kinetic constant is calculated for the corresponding Km and Vmax for treated and untreated tissues.

Caco-2 cells [1] = experiment: Confocal Ca2+ fluorescence microscopy (Fluo-8); assay type: cell-based
Protocol: Caco-2 cells are obtained from ATTC and cultured in Dulbecoo's modified Eagle's medium supplemented with 10% fetal calf serum (FCS) and 1% nonessential amino acids at 37° C. and 5% CO2. Caco-2 cells are passaged for 20-25 times and are seeded (2×10^5 cells/dish) on 5 cm petri-dishes and grown until 80% confluence, when the FCS concentration is changed to 5%. Cells are grown for another 10 days before they are used for functional studies.
Caco2 cells grown in 25 mm round coverslips are mounted on the bath chamber RC-21BR attached to series 20 stage adapter (Warner Instruments, CT USA). The cells are maintained at 37° C. using a single channel table top heater controller (TC-324B, Warner Instruments, CT USA). Cells are loaded with the fluorescent calcium indicator Fluo-8 AM dye (Cat #0203, TEFLab, Inc., Austin, Tex. USA) at 0.5 μM concentration at room temperature and incubated for 45 minutes. Confocal laser scanning microscopy is performed using an inverted Fluoview 1000 IX81 microscope (Olympus, Tokyo, Japan) and a U Plan S-Apo 20× objective. Fluorescence is recorded by argon lasers with excitation at 488 nm and emission at 515 nm. The Fluorescent images are collected with scanning confocal microscope. […] Changes are recorded and fluorescence is measured for various cells. […]

chloride secretion = experiment: Chloride secretion with NSP4 peptide and glucose (FIG. 7); assay type: cell-based
NFA-sensitive current = experiment: Isc with NSP4 peptide and glucose (FIG. 6); assay type: cell-based
Caco-2 cells [2] = experiment: Gramicidin perforated whole cell currents (patch clamp); assay type: cell-based; design: dose or concentration left out as unconfirmed; settings: in the continued presence of glucose
Caco-2 cells [3] = experiment: Ussing chamber Isc in Caco-2 cells grown on permeable inserts; assay type: cell-based; settings: added to the apical side of Caco-2 cells
Protocol: Caco-2 cells are obtained from ATTC and cultured in Dulbecoo's modified Eagle's medium supplemented with 10% fetal calf serum (FCS) and 1% nonessential amino acids at 37° C. and 5% CO2. […] Cells are grown for another 10 days before they are used for functional studies.

small intestine cells = experiment: Glucose-induced HCO3- secretion in small intestine cells; assay type: cell-based; design: dose or concentration left out as unconfirmed

CO[C@@H]([C@H](O)[C@H](O)CO)[C@@H](O)C=O [3-OMG, 3-O-methylglucose]
Vmax of Isc increase (ileal mucosa; increasing concentration added to lumen side, Michaelis-Menten fit, n=6 tissues): 1.9±0.13 μeq·h^−1·cm^−2
Km (ileal mucosa; increasing concentration added to lumen side, Michaelis-Menten fit, n=6 tissues, read-out: Km of Isc increase): 220 ± 70 µM
intracellular Ca^2+ increase compared to similar concentration of glucose (Caco-2 cells [1]): little increase

O=C(O)CN(CC(=O)O)c1ccccc1OCCOc1ccccc1N(CC(=O)O)CC(=O)O [BAPTA]
glucose-stimulated increase in intracellular Ca^2+ after pre-incubation (Caco-2 cells [1]; pre-incubating the cells 45 minutes with BAPTA): fails to show a glucose-stimulated increase

O=S(=O)(NCCNC/C=C/c1ccc(Br)cc1)c1cccc2cnccc12 [H89, H-89]
effect on glucose-stimulated net increase in Isc (ileal mucosa; pre-treatment of small intestine cells with PKA inhibitor): significant reduction

O=C(O)c1cccnc1Nc1cccc(C(F)(F)F)c1 [NFA, niflumic acid]
inhibition of chloride secretion induced by NSP4 peptide and glucose (chloride secretion): not completely inhibited
inhibition of glucose-stimulated increase in Isc (ileal mucosa; 100 μM to the lumen side, 8 mM glucose): partial inhibition
inhibition of anion secretion induced by NSP4 peptide and glucose (NFA-sensitive current): not completely inhibited
effect on NSP4114-135-stimulated current (NFA-sensitive current; NFA 100 μM): abolishes
effect on glucose activated inward current (Caco-2 cells [2]): inhibits the glucose activated inward current
inhibition of glucose-stimulated increase in Isc (Caco-2 cells [3]): significant inhibition

O=C(O)c1cc([N+](=O)[O-])ccc1NCCCc1ccccc1 [NPPB]
inhibition of glucose-induced, anion channel-mediated HCO3^− secretion (small intestine cells; NPPB): significant inhibition
glucose-induced, anion channel-mediated HCO3^− secretion (small intestine cells; with NPPB): 4.2±0.7 mEq·h^−1·cm^−2

O=C(CCc1ccc(O)cc1)c1c(O)cc(O)cc1O[C@@H]1O[C@H](CO)[C@@H](O)[C@H](O)[C@H]1O [phlorizin]
Isc response to increasing glucose in pre-treated tissues (ileal mucosa; tissues pre-treated with phlorizin): no response to glucose

From patent US10086007B2, “Materials and methods for treatment of cystic fibrosis and for induction of ion secretion” (priority 2012, dated 2018)
